Results on seven compounds are retold here after patent US6057311A, “Benzodiazonine derivatives binding to cholecystokinin or gastrin receptors” (James Black Foundation Limited, priority 1996, dated 2000).

One test deals with T1, CCKB receptor (Mus musculus, UniProt P56481).
T1 construct: The cortex was dissected, weighed and homogenised in 40 ml ice-cold buffer; tissue Charles River (animals); host or cells: cerebral cortex of male CD1 mice, membranes
T1 sequence (P56481 1-453): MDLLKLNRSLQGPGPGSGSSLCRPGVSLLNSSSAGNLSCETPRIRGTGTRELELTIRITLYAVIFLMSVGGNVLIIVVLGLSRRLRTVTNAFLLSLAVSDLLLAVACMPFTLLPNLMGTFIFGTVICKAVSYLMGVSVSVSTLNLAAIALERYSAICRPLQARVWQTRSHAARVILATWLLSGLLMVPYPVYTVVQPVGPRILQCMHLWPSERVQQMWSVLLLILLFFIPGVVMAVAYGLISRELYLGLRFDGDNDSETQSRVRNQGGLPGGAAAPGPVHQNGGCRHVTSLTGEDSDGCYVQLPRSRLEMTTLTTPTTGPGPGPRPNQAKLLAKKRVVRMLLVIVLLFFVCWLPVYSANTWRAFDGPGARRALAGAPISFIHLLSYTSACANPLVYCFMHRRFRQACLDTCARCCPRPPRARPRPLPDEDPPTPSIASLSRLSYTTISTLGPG
The test is described as follows: radioligand binding assay at the CCKB receptor in mouse cortical membranes ([125I]-CCK8S). To be noted: [125I]-CCK8S 200 pM, 150 min at 21±3° C.; for pKi (Mouse cortex): pH 7.2; for Ki: pH 7.2, read-out: pKi (Mouse cortex) (converted). A digest of the protocol: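 Male CD1 mouse cortical membranes (2 mg/ml original wet weight) were incubated 150 min at 21±3 °C in HEPES buffer pH 7.2 (130 mM NaCl, 4.7 mM KCl, 5 mM MgCl2, 1 mM EDTA, bacitracin) with [125I]-CCK8S and competitor. Non-specific binding was defined with L-365,260; bound label was measured by GF/B filtration and gamma counting.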

A further test addresses T2, CCKA (Cavia porcellus, UniProt Q63931).
T2 construct: The pancreatata were removed from male guinea-pigs; from tissue; host or cells: pancreas of male Dunkin Hartley guinea pigs, membranes
T2 sequence (Q63931 1-430): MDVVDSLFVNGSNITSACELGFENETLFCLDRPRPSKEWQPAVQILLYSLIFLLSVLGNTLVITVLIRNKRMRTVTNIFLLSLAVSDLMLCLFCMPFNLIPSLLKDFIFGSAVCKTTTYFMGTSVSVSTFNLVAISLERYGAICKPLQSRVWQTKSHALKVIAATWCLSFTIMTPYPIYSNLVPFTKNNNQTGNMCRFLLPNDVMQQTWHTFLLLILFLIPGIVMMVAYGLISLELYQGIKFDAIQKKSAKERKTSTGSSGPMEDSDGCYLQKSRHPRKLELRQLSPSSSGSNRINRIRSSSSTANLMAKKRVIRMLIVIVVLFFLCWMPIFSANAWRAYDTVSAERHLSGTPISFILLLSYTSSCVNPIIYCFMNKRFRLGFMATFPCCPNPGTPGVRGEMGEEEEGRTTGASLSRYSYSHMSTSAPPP
Kind of test: CCKA binding assay, guinea pig pancreas membranes ([125I]-CCK8(S)). To be noted: [125I]-CCK8(S) 200 pM, 0.375 μM PD134,308, 150 min at 21±3° C.; for pKi (Guinea pig pancreas): pH 7.2; for Ki: pH 7.2, read-out: pKi (Guinea pig pancreas) (converted). The method in brief: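 Guinea-pig pancreatic membranes (1 mg/ml original wet weight, containing 0.375 μM PD134,308) were incubated 150 min at 21±3 °C in HEPES pH 7.2 with [125I]-CCK8(S), added at 200 pM, and competitor. Non-specific binding used L-364,718 (100 nM added). Bound tracer was filtered on GF/B and gamma-counted.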

As for `CC(=O)N1[C@H](CCC(C)C)C(=O)N(Cc2ccccc2)c2ccccc2C(=O)C[C@H]1C(=O)NCC(=O)O` [Example 38, (3R,5S)-4-acetyl-1-benzyl-5-carboxymethylaminocarbonyl-3-(3,3-dimethyl)propyl-2,7-dioxo-2,3,4,5,6,7-hexahydro-1H-1,4-benzodiazonine], the “pKi (Mouse cortex)” value at CCKB receptor worked out at 5.3. Besides, the “pKi (Guinea pig pancreas)” value at CCKA was 5.0.
Turning to `CCC1CCN(C(=O)Nc2ccc(Cl)c(Cl)c2)CC(=O)N(Cc2ccccc2)c2ccccc21` (centres unmarked) [Example 52, 1-benzyl-7-ethyl-4-(3,4-dichlorophenyl)carbamyl-2-oxo-2,3,4,5,6,7-hexahydro-1H-1,4-benzodiazonine], the Ki at CCKB receptor was 10 µM; at CCKA, 0.2 µM.
Consider `CC1CCN(C(=O)Nc2ccc(Cl)c(Cl)c2)CC(=O)N(Cc2ccccc2)c2ccccc21` (centres unmarked) [Example 44, 1-benzyl-4-(3,4-dichlorophenyi)carbamyl-7-methyl-2-oxo-2,3,4,5,6,7-hexahydro-1H-1,4-benzodiazonine], for which the values for the Ki at CCKB receptor and at CCKA were 3.16 µM and 0.158 µM, respectively.
Regarding `CC(=O)N1[C@H](CC2CCCCCC2)C(=O)N(Cc2ccccc2)c2ccccc2C(=O)C[C@H]1C(=O)NCC(=O)O` [Example 39, (3R,5S)-4-acetyl-1-benzyl-5-carboxymethylaminocarbonyl-3-cycloheptylmethyl-2,7-dioxo-2,3,4,5,6,7-hexahydro-1H-1,4-benzodiazonine], the “pKi (Mouse cortex)” value on CCKB receptor was 5.6. Besides, the “pKi (Guinea pig pancreas)” value on CCKA stood at 5.0.
`O=C(OCc1ccccc1)c1cccc(NC(=O)N2CCC(=O)c3ccccc3N(Cc3ccccc3)C(=O)C2)c1` [Example 46]: the Ki at CCKB receptor was 10 µM; on CCKA, 3.98 µM.
On to `Cc1cccc(NC(=O)N2CCC(=O)c3ccccc3NC(=O)C2)c1` [Example 5, 4-(3-methylphenyl)carbamyl-2,7-dioxo-2,3,4,5,6,7-hexahydro-1H-1,4-benzodiazonine], for which the Ki on CCKB receptor is 10 µM; on CCKA, 5.01 µM.
For `CC(=O)N1[C@H](CC23CC4CC(CC(C4)C2)C3)C(=O)N(Cc2ccccc2)c2ccccc2C(=O)C[C@H]1C(=O)NC(C)(C)C(=O)O` [Example 26, (3R,5S)-4-acetyl-3-(1-adamantyl)methyl-1-benzyl-5-(1-carboxy-1-methyl)ethylaminocarbonyl-2,7-dioxo-2,3,4,5,6,7-hexahydro-1H-1,4-benzodiazonine], in that order: 1 µM and 6.31 µM.
